Test results reported in patent US11197863B2, “Inhibitors of polo-like kinase 4 (PLK4) for treating pediatric embryonal tumors” (ANN AND ROBERT H. LURIE CHILDREN'S HOSPITAL OF CHICAGO, priority 2017, dated 2021).

Columns and labels:
[1] = system: PLK4 mRNA in MON rhabdoid cells; assay: qPCR for PLK4 expression; assay type: cell-based, human; settings: 10, 50, 100 and 500 nM for 24, 48 and 72 hours vs 0.1% DMSO
Experimental: The expression of PLK4 (Hs00179514_m1) in each cell line was verified by TaqMan GE assays (Thermo Fisher Scientific, USA) using the housekeeping gene GAPDH (Hs02758991_g1) as reference. Total RNA (2 μg) was used to make cDNA using the Applied Biosystems High Capacity RNA-to-cDNA kit (Thermo Fisher Scientific). Reactions were performed in triplicate with adequate positive and negative controls. The normalized expression levels were calculated by […] method using the housekeeping gene and a pool of all samples as calibrator.

[2] = Brain to plasma ratio (B:P); assay type: in vivo; settings: male, CD-1, mouse, brain and plasma, po, 7.5 mg/kg, fasted male CD-1 mice, 4 hours post-dose, average
Experimental: Raw brain-to-plasma ratios (B:P) were determined by dividing the brain concentration in ng/g by the plasma concentration in ng/g (with plasma, density assumed to be of 1 g/mL). The average B:P ratio was determined to be approximately 0.08±0.3 (FIG. 12). No further CFI-400945 pharmacokinetic studies were done as part of this study.
Male CD-1 mice weighing between 20 and 40 grams were fitted with jugular vein cannulas as appropriate and fasted overnight until 4 hours post-dose. Double route of administration (oral and IV) were tested, with a single dose concentration of 7.5 mg/kg. Plasma and brain were sampled at 6 time-points, starting at 30 minutes (n=3 animals/time-point). Brain was extracted at the same plasma sampling time-point from each animal. Both plasma and brain samples were deproteinated. Brain samples were weighted, homogenized and CFI-400945 was extracted. […] The dosing solution was normalized in a matched matrix (mouse plasm) and analyzed in triplicate in the same analytical batch as the incurred samples (Absorption Systems—Exton, Pa.).

breast cancer cells = settings: Sampson et al.; cited from earlier work
TEK = TEK (Homo sapiens, UniProt Q02763); assay: Kinase activity screening (SelectScreen Kinase Profiling); assay type: biochemical; settings: 10-point titration
TEK, sequence (Q02763 23-1124): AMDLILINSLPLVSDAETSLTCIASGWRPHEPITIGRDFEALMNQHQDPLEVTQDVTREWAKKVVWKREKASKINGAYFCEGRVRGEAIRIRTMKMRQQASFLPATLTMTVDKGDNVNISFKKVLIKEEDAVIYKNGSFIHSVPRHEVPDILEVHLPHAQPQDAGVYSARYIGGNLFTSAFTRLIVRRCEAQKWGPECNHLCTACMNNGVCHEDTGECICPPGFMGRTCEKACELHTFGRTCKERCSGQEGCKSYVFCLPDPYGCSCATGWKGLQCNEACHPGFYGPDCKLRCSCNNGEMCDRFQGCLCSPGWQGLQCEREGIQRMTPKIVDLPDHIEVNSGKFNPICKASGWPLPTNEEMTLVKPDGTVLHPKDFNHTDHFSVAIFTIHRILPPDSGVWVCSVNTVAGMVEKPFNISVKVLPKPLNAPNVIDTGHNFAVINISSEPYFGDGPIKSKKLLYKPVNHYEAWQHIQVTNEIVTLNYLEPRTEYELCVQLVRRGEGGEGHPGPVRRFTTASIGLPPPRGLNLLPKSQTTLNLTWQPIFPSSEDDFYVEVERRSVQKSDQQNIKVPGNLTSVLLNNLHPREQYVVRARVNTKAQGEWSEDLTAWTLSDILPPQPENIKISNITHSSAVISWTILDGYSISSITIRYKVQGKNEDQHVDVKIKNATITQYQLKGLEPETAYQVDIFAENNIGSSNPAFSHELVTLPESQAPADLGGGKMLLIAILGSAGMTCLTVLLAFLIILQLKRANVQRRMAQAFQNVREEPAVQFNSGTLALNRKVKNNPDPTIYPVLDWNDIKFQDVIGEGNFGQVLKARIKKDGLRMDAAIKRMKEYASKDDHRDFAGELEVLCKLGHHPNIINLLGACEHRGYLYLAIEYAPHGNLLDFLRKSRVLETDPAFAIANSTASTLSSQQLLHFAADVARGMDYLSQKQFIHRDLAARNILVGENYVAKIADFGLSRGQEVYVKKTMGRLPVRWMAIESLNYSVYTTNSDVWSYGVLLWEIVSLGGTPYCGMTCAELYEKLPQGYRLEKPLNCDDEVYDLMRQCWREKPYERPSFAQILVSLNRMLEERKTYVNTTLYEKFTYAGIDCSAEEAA
Source text: These assays utilized various formats appropriate to the kinase, its substrate and its activity. Formats included the Z-LYTE™ Kinase Assay that determines the differential sensitivity of phosphorylated and non-phosphorylated peptide substrates to proteolytic cleavage using a FRET-based readout, the Adapta™ Universal Kinase Assay that employs a homogeneous, fluorescence-based immunoassay for the detection of ADP produced by kinases and the LanthaScreen™ Eu Kinase Binding Assay that utilizes an Alexa Fluor™ conjugated “tracer” and an Eu-labeled anti-tag antibody to measure binding of a compound to the kinase target [62].

[3] = system: MON, G401, BT-12, and BT-16 cells; assay: MTT cell proliferation assay, rhabdoid tumor cell lines; assay type: cell-based, human; settings: all cell lines evaluated; 10-500 nM, 48 and 72 hr
Experimental: The expression of PLK4 (Hs00179514_m1) was verified by TaqMan GE assays (Thermo Fisher Scientific, USA) using the housekeeping gene GAPDH (Hs02758991_g1) as reference as previously described.[30] PLK4 inhibitor. […] Cell proliferation was evaluated by MTT assay and cell survival was evaluated by clonogenic assays using increasing concentrations of the drug in different time-points, as described below.
To evaluate cell proliferation, we used TACS MTT Cell Proliferation Assays (Trevigen, USA). We plated 2×10^3 cells on each well of a 96-well plate and the absorbance was measured after 48 and 72 hr at concentrations of 10, 50, 100, 200, and 500 nM. Each experiment was performed in triplicates.

[4] = system: BT-12 AT/RT intracranial xenografts; assay: Intracranial AT/RT xenograft tumors; assay type: in vivo, mice; settings: 7.5 mg/kg/day oral for 21 days
Source text: Six-week-old female athymic mice (rnu/rnu genotype, BALB/c background) were purchased from Envigo (Harlan) and housed under aseptic conditions, which included filtered air and sterilized food, water, bedding, and cages. The Northwestern University Institutional Animal Care and Use Committee approved all animal protocols. The BT-12 AT/RT cell line, which has high expression of PLK4 was modified to express luciferase and injected intracranially in nude mice as previously described. Each mouse was injected with a cell suspension (10,000 cells/3 μL) into the right caudate putamen of the brain. […] Bioluminescence monitoring was performed twice a week throughout the course of the experiment for quantitative measurement of tumor growth and response to therapy. Kaplan-Meier survival analysis was performed to assess survival benefit within the treatment group as compared to controls. Differences between survival curves were calculated using a log-rank test. Brains were resected at 6 hours following completion of the treatment and placed in 4% paraformaldthyde for subsequent histological examination.

DAOY MB cells = assay: Confluency assay (IncuCyte ZOOM); assay type: cell-based, human; settings: increasing concentrations, 48 hour period, p-value=0.029
Experimental: For further evaluation of the effect of the PLK4 inhibitor over tumor cell proliferation, confluency was measured over a 48 hour period. MON, BT-12, G401 and DAOY cells were plated in 96-well plates with a density of 6×10^4 per well. […] Confluency was monitored for 48 hours by taking phase contrast images every 2 hours and measured using an IncuCyte ZOOM system (Essen BioScience, USA). Experiments were performed in triplicates.

RT and MB cell lines [5] = assay: Cell cycle analysis by flow cytometry (polyploidy); assay type: cell-based, human; settings: multiple RT and MB cell lines
Experimental: Cell cycle evaluation was performed by staining the cells with PI (Thermo Fisher Scientific, USA) according to manufacturer's instructions. […] Data was analyzed using Modfit LT from Verity Software House. Experiments were performed in triplicates.

Aurora kinase B = Aurora kinase B (Homo sapiens, UniProt Q96GD4); settings: cited from earlier work
Aurora kinase B, sequence (Q96GD4 whole entry, species assumed): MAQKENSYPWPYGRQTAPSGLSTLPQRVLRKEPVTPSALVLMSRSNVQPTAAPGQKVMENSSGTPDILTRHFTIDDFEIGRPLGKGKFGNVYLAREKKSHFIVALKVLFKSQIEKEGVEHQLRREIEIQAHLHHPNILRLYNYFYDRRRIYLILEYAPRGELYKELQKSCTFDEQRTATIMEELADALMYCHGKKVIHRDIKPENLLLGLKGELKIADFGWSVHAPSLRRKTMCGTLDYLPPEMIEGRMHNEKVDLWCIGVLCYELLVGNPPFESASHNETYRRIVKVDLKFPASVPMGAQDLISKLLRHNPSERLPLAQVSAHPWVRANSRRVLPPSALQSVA

zebrafish larvae = assay: In vivo toxicity assay in zebrafish larvae
Experimental: Control larvae were exposed to 2% DMSO. Survival and delays in development and morphologic abnormalities were recorded at three time-points (24, 48, and 72 h of treatment). For each condition, groups of 20 larvae were analyzed in triplicates totalizing 420 subjects and 60 controls. Two-way ANOVA was used to analyze the results.

RT and MB cell lines [6] = assay: Clonogenic recovery assay; assay type: cell-based, human; settings: 100 nM for 6 days, then 12 days drug-free
Experimental: For each cell line, 200 cells were seeded into 6-well tissue culture plates. […] On the 7th day, cell were washed with IX PBS twice and then incubated with 0.1% DMSO for an additional 12 days. […] The number of colonies was counted. All experiments were performed in triplicates.

[7] = system: MON, G401, BT-12, and BT-16 cells; assay: Clonogenic assay, rhabdoid tumor cell lines; assay type: cell-based, human; settings: 50-200 nM; analyzed 14 days after treatment
Experimental: For each cell line, 200 cells were seeded into six-well plates, incubated for 14 days, fixed with formalin, stained with Cresyl violet (ACROS Organics, USA), and the number of colonies counted using Image J software (www.imagej.nih.gov).
To evaluate the effect of the PLK4 mutation over cell survival, MON-PLK4-mutated cells were compared with MON-Cas9. […] Controls were treated with 0.1% DMSO. All experiments were performed in triplicates.

normal breast cells = settings: Sampson et al.; cited from earlier work

For `COc1ccc2c(c1)[C@]1(C[C@H]1c1ccc3c(/C=C/c4ccc(CN5C[C@@H](C)O[C@@H](C)C5)cc4)n[nH]c3c1)C(=O)N2` [CFI-400945], the “PLK4 expression (qPCR)” value [1] is listed as “time dependent decrease in PLK4 expression”, the Kp at 4 h [2] is listed as about 0.08 and the “effect on breast cancer cells” value (breast cancer cells) is listed as “cell death”. The IC50 (TEK) was 109 nM, the “cell proliferation (MTT)” value [3] was “significant reduction of cell proliferation” and the “growth of intracranial AT/RT tumors (bioluminescence)” value ([4]; p=0.0146) was “significantly reduced the growth”. The survival ([4]; p=0.0477, log-rank) was “extended the survival”, the “delay in reaching confluency (FC)” value (DAOY MB cells) was 1.70 and the degree of polyploidy (RT and MB cell lines [5]) was over 8 N. For the same compound, the “activity against Aurora kinase B” value (Aurora kinase B) was “certain activity”, the larvae deaths (zebrafish larvae; 10 nM to 20 μM for 3 days, over 400 larvae) was “no increase in larvae deaths” and the morphologic abnormalities (zebrafish larvae; extremely high concentrations (10 and 20 μM)) was “edema and body curvature were consistently observed”. For the same compound, the “ability to generate colonies after drug removal” value (RT and MB cell lines [6]) was “lost their ability to generate colonies”, the “colonies (clonogenic assay)” value [7] was “complete absence of colonies” and the “effect on normal breast cells” value (normal breast cells) was “unaffected”.
